Numbers after ± are expanded uncertainties.
What was measured:
[1] = Crystal; for Normal melting temperature: DTA
[2] = xn = mol fraction of the nth substance listed; conditions: 293 K, 101 kPa, Crystal, X-ray diffraction

Work on `[Br-].[Br-].[Ca+2]` [calcium bromide] yielded a mass density ([1]; 293 K, 101.3 kPa, X-ray diffraction) of 5060 ± 2 kg/m3 and a Normal melting temperature [1] of 738 ± 1 °C.
Compound `[Br-].[Br-].[Ca+2]` [calcium bromide] + [Ca+2].[Cl-].[Cl-] has a mass density ([2]; x1 = 0.15) of 3536 ± 2 kg/m3, a mass density ([2]; x1 = 0.3) of 3836 ± 2 kg/m3 and a mass density ([2]; x1 = 0.45) of 4112 ± 2 kg/m3. The mass density ([2]; x1 = 0.6) was 4371 ± 2 kg/m3, the mass density ([2]; x1 = 0.75) was 4628 ± 2 kg/m3 and the mass density ([2]; x1 = 0.9) was 4861 ± 2 kg/m3. For the same compound, the mass density ([2]; x1 = 1) was 5060 ± 2 kg/m3.
Compound `[Ca+2].[Cl-].[Cl-]` [calcium chloride] has a Normal melting temperature [1] of 770 ± 1 °C.

Reference: the NIST ThermoML archive (doi:10.1016/j.tca.2010.03.027)
